Reference: ChEMBL document CHEMBL1201862, “PubChem BioAssay data set” (2004)
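Cultured in 96-well plates, cells were exposed to test compound for 48 hours across five concentrations. GI50: concentration for 50% inhibition of growth.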 The source made the active and inactive calls. Rule as the data show it: active = GI50 up to about 1.1 µM and inactive = higher.

Columns and labels:
Experiment in all cases: inhibition of tumour cell growth, NCI panel, 48 h
NCI-H23 = tested on: NCI-H23
COLO 205 = tested on: COLO 205
OVCAR-5 = tested on: OVCAR-5
MOLT-4 = tested on: MOLT-4
SF-539 = tested on: SF-539
NCI-H460 = tested on: NCI-H460
HOP-62 = tested on: HOP-62
SK-MEL-5 = tested on: SK-MEL-5
SF-295 = tested on: SF-295
UACC-62 = tested on: UACC-62
U-251 = tested on: U-251
UACC-257 = tested on: UACC-257
UO-31 = tested on: UO-31
SK-OV-3 = tested on: SK-OV-3
NCI-H226 = tested on: NCI-H226
ACHN = tested on: ACHN
786-0 = tested on: 786-0

Measured: GI50

COc1ccc2c(c1)OCCc1cn[nH]c1-2
inactive: NCI-H23 38.3 µM | COLO 205 29.3 µM | OVCAR-5 35.7 µM | MOLT-4 20.8 µM | SF-539 32.7 µM | NCI-H460 31.6 µM | HOP-62 56.6 µM | SK-MEL-5 29.2 µM | SF-295 54.2 µM | UACC-62 22.8 µM | U-251 28.8 µM | UACC-257 32.7 µM | UO-31 32.6 µM | SK-OV-3 29.7 µM

O=C(CSc1nnc(Cc2ccccc2)o1)Nc1cccc([N+](=O)[O-])c1
inactive: NCI-H23 > 100 µM | COLO 205 > 100 µM | OVCAR-5 > 100 µM | MOLT-4 > 100 µM | SF-539 > 100 µM | NCI-H226 > 100 µM | NCI-H460 > 100 µM | HOP-62 > 100 µM | SK-MEL-5 > 100 µM | SF-295 > 100 µM | UACC-62 > 100 µM | U-251 > 100 µM | ACHN > 100 µM | UACC-257 > 100 µM | UO-31 > 100 µM | SK-OV-3 > 100 µM | 786-0 > 100 µM

COc1cc(OC)c(C(=O)c2cccs2)cc1N
inactive: NCI-H23 > 100 µM | COLO 205 > 100 µM | OVCAR-5 > 100 µM | MOLT-4 > 100 µM | SF-539 > 100 µM | NCI-H460 > 100 µM | HOP-62 > 100 µM | SK-MEL-5 > 100 µM | SF-295 > 100 µM | UACC-62 > 100 µM | U-251 > 100 µM | ACHN > 100 µM | UACC-257 > 100 µM | UO-31 96.6 µM | SK-OV-3 > 100 µM | 786-0 > 100 µM

COc1cc(NC(C)=O)c2[nH]c3c(C)cc(NC(C)=O)c(C)c3c2c1
inactive: NCI-H23 > 100 µM | COLO 205 > 100 µM | MOLT-4 > 100 µM | SF-539 > 100 µM | NCI-H226 > 100 µM | NCI-H460 > 100 µM | SK-MEL-5 > 100 µM | SF-295 > 100 µM | U-251 > 100 µM | ACHN > 100 µM | UO-31 > 100 µM | SK-OV-3 > 100 µM | 786-0 > 100 µM

C/C(=C/C(=O)Nc1ccccc1)Nc1onc(C)c1C
inactive: NCI-H23 > 100 µM | COLO 205 > 100 µM | OVCAR-5 > 100 µM | MOLT-4 > 100 µM | SF-539 > 100 µM | NCI-H226 > 100 µM | NCI-H460 > 100 µM | HOP-62 > 100 µM | SK-MEL-5 > 100 µM | SF-295 > 100 µM | UACC-62 > 100 µM | U-251 > 100 µM | UACC-257 > 100 µM | UO-31 > 100 µM | SK-OV-3 > 100 µM

CCOC(=O)C1(C#N)C(c2ccccc2)CC(O)(c2ccc([N+](=O)[O-])cc2)C(C(=O)c2ccc([N+](=O)[O-])cc2)C1c1ccccc1 (stereo unspecified)
inactive: NCI-H23 42.2 µM | COLO 205 > 100 µM | OVCAR-5 > 100 µM | MOLT-4 > 100 µM | NCI-H226 > 100 µM | NCI-H460 > 100 µM | HOP-62 > 100 µM | SF-295 > 100 µM | UACC-62 > 100 µM | U-251 > 100 µM | ACHN > 100 µM | UACC-257 > 100 µM | UO-31 > 100 µM | SK-OV-3 > 100 µM | 786-0 > 100 µM

COC(=O)C(CC(C)C)NC(=O)NC12CC3CC(CC(F)(C3)C1)C2 (stereo unspecified)
inactive: NCI-H23 > 100 µM | COLO 205 > 100 µM | OVCAR-5 > 100 µM | MOLT-4 > 100 µM | SF-539 > 100 µM | NCI-H460 > 100 µM | HOP-62 > 100 µM | SK-MEL-5 > 100 µM | UACC-62 > 100 µM | U-251 > 100 µM | ACHN > 100 µM | UACC-257 > 100 µM | UO-31 46.6 µM | SK-OV-3 > 100 µM | 786-0 > 100 µM

CSc1nc2c(ncn2C2OC(CO)C(O)C(O)C2O)c(=O)[nH]1 (stereo unspecified)
inactive: NCI-H23 > 100 µM | COLO 205 > 100 µM | OVCAR-5 > 100 µM | MOLT-4 > 100 µM | SF-539 > 100 µM | NCI-H226 > 100 µM | NCI-H460 > 100 µM | HOP-62 > 92.5 µM | SK-MEL-5 > 100 µM | SF-295 82.2 µM | UACC-62 > 100 µM | U-251 > 83.8 µM | UACC-257 > 100 µM | UO-31 > 100 µM | SK-OV-3 > 100 µM

CC(=O)OC1CC2OC(Cc3ccccc32)O1 (stereo unspecified)
inactive: NCI-H23 > 100 µM | COLO 205 > 100 µM | MOLT-4 48.9 µM | SF-539 29.9 µM | NCI-H226 36.8 µM | NCI-H460 > 100 µM | HOP-62 > 100 µM | SF-295 65.3 µM | UACC-62 > 100 µM | U-251 52.1 µM | ACHN > 100 µM | UACC-257 > 100 µM | UO-31 > 100 µM | SK-OV-3 > 100 µM | 786-0 > 100 µM

O=C1NC2OC(C(O)CO)C(O)C2O1 (stereo unspecified)
inactive: NCI-H23 > 100 µM | COLO 205 > 100 µM | OVCAR-5 > 100 µM | MOLT-4 > 100 µM | NCI-H460 > 100 µM | SK-MEL-5 > 100 µM | SF-295 > 100 µM | UACC-62 > 100 µM | U-251 > 100 µM | ACHN > 100 µM | UACC-257 > 100 µM | UO-31 > 100 µM | SK-OV-3 > 100 µM | 786-0 > 100 µM

CC(C)c1cccc(C(C)C)c1NC(=S)Nc1ccccc1
inactive: NCI-H23 > 100 µM | COLO 205 > 100 µM | OVCAR-5 > 100 µM | MOLT-4 > 100 µM | SF-539 > 100 µM | NCI-H226 > 100 µM | NCI-H460 > 100 µM | HOP-62 > 100 µM | SK-MEL-5 48 µM | SF-295 > 100 µM | UACC-62 > 100 µM | U-251 > 100 µM | ACHN > 100 µM | UACC-257 > 100 µM | UO-31 > 100 µM | SK-OV-3 > 100 µM

Cc1ccccc1NC(=O)C(=O)CC(=O)c1ccc([N+](=O)[O-])cc1
inactive: NCI-H23 > 100 µM | COLO 205 > 100 µM | OVCAR-5 > 100 µM | SF-539 > 100 µM | NCI-H226 > 100 µM | NCI-H460 > 100 µM | HOP-62 > 100 µM | SF-295 > 100 µM | UACC-62 > 100 µM | U-251 > 100 µM | ACHN > 100 µM | UACC-257 > 100 µM | UO-31 > 100 µM | SK-OV-3 > 100 µM | 786-0 > 100 µM

CCOC(=O)CC1=CSC2=NCCN12
inactive: NCI-H23 > 100 µM | COLO 205 > 100 µM | OVCAR-5 > 100 µM | SF-539 > 100 µM | NCI-H226 > 100 µM | NCI-H460 > 100 µM | HOP-62 > 100 µM | SK-MEL-5 > 100 µM | SF-295 > 100 µM | UACC-62 > 100 µM | U-251 > 100 µM | ACHN > 100 µM | UACC-257 > 100 µM | UO-31 > 100 µM | SK-OV-3 > 100 µM | 786-0 > 100 µM
